# Several values for one entry are separate records, joined by “and”; a condition that tells them apart may be missing. Identical values can stand only once. Like-named read-outs stand apart in the source and are kept apart here.
# Legend:
# [1] = Concentration of vancomycin in the lungs of mice after inhalation therapy (Example 8); conditions: for [VANCOMYCIN] in Lung, animals n/N (second line of cell): Inhalation, BID x 3; for Vancomycin (μg/g), mean / Vancomycin (μg/lung), mean / Vancomycin (μg/g), individual mice / Vancomycin (μg/lung), individual mice: 4 days after inhalation therapy; for Vancomycin (μg/g), mean / Vancomycin (μg/lung), mean: group mean; for Vancomycin (μg/g), individual mice / Vancomycin (μg/lung), individual mice: listed as Soluble Vancomycin
# Description: The instillation was performed through the nostrils route using micropipette with tips (Gilson, calibrated with Femt Scientific). The mouse is held by its ears and 20 μl of bacteria are gradually (2 μl per breath) released into the nostrils (10 μl in each nostril) with the help of a micro-pipette. The mice were observed every 10 min until they fully recovered from the anesthesia.
# There were 5 groups and each group had 12 mice. […] Mice in group 5 received sterile normal saline (0.9% NaCl) by inhalation.
# [2] = tested on: S. pneumoniae (ATCC 6303); conditions: for Log CFU/Lung, animals n/N (second line of cell) / Log CFU/mL of Blood, animals n/N (second line of cell) / Log CFU/mL of Blood: Inhalation, BID x 3; for Log CFU/mL of Blood: animals surviving until Day 7; for mice in which S. pneumoniae in the lungs was not eradicated: mice surviving to day 7
# Description: Sixty (60) Thirty six (36) female mice (Swiss Webster, Charles River) were received in the vivarium and acclimated for at least 7 days prior to initiation of the protocol. All mice were instilled via nasal insufflation with S. pneumoniae (ATCC, 6303, 4.1×10^4 CFU/ mice) after being anesthetized with Ketamine/Xylazine solution (80 mg/kg and 10 mg/kg). The instillation was performed through the nostrils route using micropipette with tips (Gilson, calibrated with Femt Scientific). The mouse is held by its ears and 20 μl of bacteria are gradually (2 μl per breath) released into the nostrils (10 μl in each nostril) with the help of a micro-pipette. The mice were observed every 10 min until they fully recovered from the anesthesia.
# Mice were dosed on days 1, 2 and 3. There were 5 groups and each group had 12 mice. […] Mice in group 5 received sterile normal saline (0.9% NaCl) by inhalation.
# Determination of bacterial colonies in the lung and blood of mice. Mice that were euthanized prior to day 7 and mice that survived to day 7 were euthanized by CO2 asphyxiation. The blood was collected by cardiac puncture after euthanization. A 1/10 dilution of blood was made in BHI broth immediately. The lungs were removed aseptically, weighed and placed into 1 ml of BHI broth in a sterile 5 ml Polypropylene round-bottom tube.
# Lungs were homogenized sterilely with a Polytron^R (Brinkmann, Rexdale, Ontario, Canada) using the maximum speed in the 5 ml Polypropylene round-bottom tube. The tissues were homogenized until a smooth. Ten-fold dilutions of the lung homogenates were made in BHI broth supplemented with 10 ug/ml of Colistin(C) 5 ug/ml of Oxolinic (O). One hundred (100) ul of each dilution of lung homogenates were plated out onto CBO agar plates and spread. The plates were incubated for 24 hours at 37° C. then colonies were counted.
# [3] = tested on: S. pneumoniae (ATCC 6303)
# Description: Thirty six (36) female mice (Swiss Webster, Charles River) were received in the vivarium and acclimated for at least 7 days prior to initiation of the protocol. […] Mice were dosed on days 1, 2 and 3. […] Mice in Group 3 received 20 min inhalation with sterile 0.9% NaCl for inhalation (Cardinal, Lot #WBA194). Euthanization and determination of bacterial colonies in blood and lungs were performed as described in Example 8.
# [4] = Fluorescence anisotropy of entrapped calcein; assay type: physicochemical; conditions: calcein probe, excitation 495 nm, emission 520 nm; higher value = more viscous
# Description: DPPC was added by ethanol injection to make 5 mg/ml liposome at 50° C. […] Fluorescence anisotropy was measured at an excitation wavelength of 495 nm and emission wavelength of 520 nm. Fluorescence anisotropy is an order parameter, which ranged from 0 to 0.4 in aqueous solution. The higher value indicates more viscous solution.
# [5] = Intraperitoneal, BID x 3, 12 mg/kg/day
# [6] = Intraperitoneal, BID x 3, 12 mg/kg/day, animals surviving until Day 7
# [7] = intraperitoneal injection 6 mg/kg BID
smiles,measurement,setting,value
"CN[C@H](CC(C)C)C(=O)N[C@H]1C(=O)N[C@@H](CC(N)=O)C(=O)N[C@H]2C(=O)N[C@H]3C(=O)N[C@H](C(=O)N[C@H](C(=O)O)c4cc(O)cc(O)c4-c4cc3ccc4O)[C@H](O)c3ccc(c(Cl)c3)Oc3cc2cc(c3O[C@@H]2O[C@H](CO)[C@@H](O)[C@H](O)[C@H]2O[C@H]2C[C@](C)(N)[C@H](O)[C@H](C)O2)Oc2ccc(cc2Cl)[C@H]1O [Vancomycin, vancomycin]","[VANCOMYCIN] in Lung, animals n/N (second line of cell)",[1]; 3.8 mg/kg/day,12/12
same,"[VANCOMYCIN] in Lung, animals n/N (second line of cell)",[1]; 6.0 mg/kg/day,12/12
same,"Vancomycin (μg/g), mean",[1]; inhaled 3.8 mg/kg,34 µg/g
same,"Vancomycin (μg/lung), mean",[1]; inhaled 3.8 mg/kg,5 μg/lung
same,"Vancomycin (μg/g), individual mice",[1]; inhaled 3.8 mg/kg,14.0 µg/g and 37.0 µg/g
same,"Vancomycin (μg/lung), individual mice",[1]; inhaled 3.8 mg/kg,5.8 μg/lung and 5.2 μg/lung (2×) and 6.8 μg/lung and 3.4 μg/lung and 4.7 μg/lung (2×) and 5.9 μg/lung and 2.0 μg/lung and 3.6 μg/lung and 8.1 μg/lung and 6.1 μg/lung
same,"Vancomycin (μg/g), mean",[1]; inhaled 6 mg/kg,61 µg/g
same,"Vancomycin (μg/lung), mean",[1]; inhaled 6 mg/kg,10 μg/lung
same,"Vancomycin (μg/g), individual mice",[1]; inhaled 6 mg/kg,42.0 µg/g and 59.0 µg/g and 66.0 µg/g
same,"Vancomycin (μg/lung), individual mice",[1]; inhaled 6 mg/kg,7.6 μg/lung and 8.8 μg/lung and 6.4 μg/lung and 9.7 μg/lung and 9.0 μg/lung and 9.3 μg/lung and 8.3 μg/lung and 14.0 μg/lung and 9.8 μg/lung
same,mice showing bacterial level in lungs,"[2]; 3.8 mg/kg/day, 7 days, FIG. 8",> 90%
same,bacterial level in lungs,"[2]; 6.0 mg/kg/day, 7 days, FIG. 8",still showed substantial bacterial level
same,"Log CFU/Lung, animals n/N (second line of cell)",[2]; 3.8 mg/kg/day,11/12
same,"Log CFU/mL of Blood, animals n/N (second line of cell)",[2]; 3.8 mg/kg/day,0/12
same,Log CFU/mL of Blood,[2]; 3.8 mg/kg/day,0 Log CFU/mL
same,"Log CFU/Lung, animals n/N (second line of cell)",[2]; 6.0 mg/kg/day,12/12
same,"Log CFU/mL of Blood, animals n/N (second line of cell)",[2]; 6.0 mg/kg/day,0/12
same,Log CFU/mL of Blood,[2]; 6.0 mg/kg/day,0 Log CFU/mL
same,"Log10 CFU/lung, individual mice","[2]; inhalation 3.8 mg/kg for 3 days, day 7, 1 = limit of detection, no colonies detected",1 Log10 CFU/lung and 2 Log10 CFU/lung
same,mice in which S. pneumoniae in the lungs was not eradicated,[2]; inhaled 3.8 mg/kg,92%
same,bacteria in blood,"[2]; inhaled 6 mg/kg and 3.8 mg/kg, day 7",no bacteria in their blood
same,mice in which S. pneumoniae in the lungs was not eradicated,[2]; inhaled 6 mg/kg,100%
same,Survival,"[2]; inhaled, 6 or 3.8 mg/kg/day on days 1, 2 and 3, 12 mice per group, FIG. 4",100%
same,"Log CFU/Lung, animals n/N (second line of cell)",[3]; [5],3/12
same,"Log CFU/mL of Blood, animals n/N (second line of cell)",[3]; [5],5/12
same,Log CFU/Lung,[3]; [6],0.7 ± 1.3 Log CFU/Lung
same,Log CFU/mL of Blood,[3]; [6],1.7 ± 2.1 Log CFU/mL
same,mice in which S. pneumoniae in the lungs was not eradicated,[3]; [7],25%
same,mice in which S. pneumoniae was not eradicated from the blood,[3]; [7],42%
same,mice surviving to day 7,"[3]; intraperitoneal injection 6 mg/kg BID, days 1, 2 and 3, n=12",100%
same,vancomycin in the lungs,"IP 12 mg/kg/day, day seven, listed as free vancomycin, 12 mg/kg/day",no vancomycin deposition in lung was detected
same,vancomycin in the lungs,"IP injections, 4 days after the end of therapy",No detectable concentrations
same,initial daily lung dose,"IP, based on 4% of the delivered dose in the lungs 30 min post IP injections",15 ug of vancomycin/lung
same,"[VANCOMYCIN] in Lung, animals n/N (second line of cell)",[5],0/12
same,[VANCOMYCIN] in Lung,[6],0 mg/g
same,vancomycin after IP injection,"Six (6) hours after IP injection, Swiss Webster mice",no detectable vancomycin was observed
"CN[C@H](CC(C)C)C(=O)N[C@H]1C(=O)N[C@@H](CC(N)=O)C(=O)N[C@H]2C(=O)N[C@H]3C(=O)N[C@H](C(=O)N[C@H](C(=O)O)c4cc(O)cc(O)c4-c4cc3ccc4O)[C@H](O)c3ccc(c(Cl)c3)Oc3cc2cc(c3O[C@@H]2O[C@H](CO)[C@@H](O)[C@H](O)[C@H]2O[C@H]2C[C@](C)(N)[C@H](O)[C@H](C)O2)Oc2ccc(cc2Cl)[C@H]1O [Vancomycin solution (15 mg/ml), vancomycin]",Fluorescence anisotropy,[4],0.014
"CN[C@H](CC(C)C)C(=O)N[C@H]1C(=O)N[C@@H](CC(N)=O)C(=O)N[C@H]2C(=O)N[C@H]3C(=O)N[C@H](C(=O)N[C@H](C(=O)O)c4cc(O)cc(O)c4-c4cc3ccc4O)[C@H](O)c3ccc(c(Cl)c3)Oc3cc2cc(c3O[C@@H]2O[C@H](CO)[C@@H](O)[C@H](O)[C@H]2O[C@H]2C[C@](C)(N)[C@H](O)[C@H](C)O2)Oc2ccc(cc2Cl)[C@H]1O [Vancomycin solution (300 mg/ml), vancomycin]",Fluorescence anisotropy,[4],0.17
